Test results: patent US20240002332A1, “Small Molecule Inhibitors of SARS-CoV-2 Infections” (priority 2020, published 2024)

Experiments:
[1] = Pharmacokinetics in mice IV 3 and PO 10 mg/kg; plasma, lung and liver; conditions: for Kp: AUC ratio (tissue/plasma)
[2] = Rat liver microsomal (RLM) stability; conditions: rat, microsomes
[3] = mice, Compound P3 dosed PO 10 mg/kg, Liver
[4] = mice, Compound P3 dosed PO 10 mg/kg, Lung
[5] = mice, Compound P3 dosed PO 10 mg/kg, Plasma
[6] = mouse Plasma, Compound P3 dosed IV 3 mg/kg
[7] = mouse Plasma, Compound P3 dosed PO 10 mg/kg

O=C(Nc1ccc([N+](=O)[O-])cc1Cl)c1cc(Cl)ccc1OC(=O)N1CCNCC1 [Compound P3, 4-chloro-2-((2-chloro-4-nitrophenyl)carbamoyl)phenyl piperazine-1-carboxylate]
clearance ([1]; mice): moderate | AUC0-INF/D [1, 3]: 65.7 kg·ng·h/mL/mg | AUC_% Extrap [1, 3]: 0.9% | Cmax/D [1, 3]: 24 kg·ng/mL/mg | AUC0-INF/D [1, 4]: 24400 kg·ng·h/mL/mg | AUC_% Extrap [1, 4]: 0.2% | Cmax/D [1, 4]: 4420 kg·ng/mL/mg | Tmax [1, 4]: 1.5 h | t1/2 [1, 4]: 2.8 h | AUC0-INF [1, 5]: 3530 ng·h/mL | AUC0-INF/D [1, 5]: 353 kg·ng·h/mL/mg | AUC_% Extrap [1, 5]: 0.5% | Cmax [1, 5]: 606 ng/mL | Cmax/D [1, 5]: 60.6 kg·ng/mL/mg | AUCINF/D [1, 6]: 426 kg·ng·h/mL/mg | AUCLast/D [1, 6]: 425 kg·ng·h/mL/mg | AUC_%Extrap_obs [1, 6]: 0.06% | Clast [1, 6]: 0.163 ng/mL | Cmax/D [1, 6]: 154 kg·ng/mL/mg | Tlast [1, 6]: 48 h | AUCINF/D [1, 7]: 353 kg·ng·h/mL/mg | AUCINF_obs [1, 7]: 3530 ng·h/mL | AUCLast/D [1, 7]: 351 kg·ng·h/mL/mg | AUC_%Extrap_obs [1, 7]: 0.5% | Clast [1, 7]: 5.23 ng/mL | Cmax/D [1, 7]: 60.6 kg·ng/mL/mg | F [1, 7]: 83% | Tlast [1, 7]: 30 h | bioavailability ([1]; mouse, in vivo, 10 mg/kg): 83% | C0 ([1]; mouse, in vivo, iv, 3 mg/kg): 536 ng/mL | Tmax ([1]; mouse, in vivo, iv, 3 mg/kg): 0.083 h | Vd ([1]; mouse, in vivo, iv, 3 mg/kg): 8.9 L/kg | clearance ([1]; mouse, in vivo, iv, 3 mg/kg): 39 mL/min/kg | AUC(0-inf) ([1]; mouse, in vivo, iv, 3 mg/kg, AUCINF_obs, mouse Plasma, Compound P3 dosed IV 3 mg/kg): 1280 ng·h/mL | AUC(0-t) ([1]; mouse, in vivo, iv, 3 mg/kg, AUClast, mouse Plasma, Compound P3 dosed IV 3 mg/kg): 1280 ng·h/mL | Cmax ([1]; mouse, in vivo, iv, 3 mg/kg, Cmax, mouse Plasma, Compound P3 dosed IV 3 mg/kg): 461 ng/mL | half-life ([1]; mouse, in vivo, iv, 3 mg/kg, t½, mouse Plasma, Compound P3 dosed IV 3 mg/kg): 3.3 h | AUC(0-inf) ([1]; mouse, in vivo, po, 10 mg/kg, AUC0-INF, mice, Compound P3 dosed PO 10 mg/kg, Liver): 657 ng·h/mL | AUC(0-inf) ([1]; mouse, in vivo, po, 10 mg/kg, AUC0-INF, mice, Compound P3 dosed PO 10 mg/kg, Lung): 244000 ng·h/mL | AUC(0-t) ([1]; mouse, in vivo, po, 10 mg/kg, AUC0-last, mice, Compound P3 dosed PO 10 mg/kg, Liver): 651 ng·h/mL | AUC(0-t) ([1]; mouse, in vivo, po, 10 mg/kg, AUC0-last, mice, Compound P3 dosed PO 10 mg/kg, Lung): 244000 ng·h/mL | AUC(0-t) ([1]; mouse, in vivo, po, 10 mg/kg, AUC0-last, mice, Compound P3 dosed PO 10 mg/kg, Plasma): 3510 ng·h/mL | Kp ([1]; mouse, in vivo, po, 10 mg/kg, mice, Compound P3 dosed PO 10 mg/kg, Liver): 0.19 | Kp ([1]; mouse, in vivo, po, 10 mg/kg, mice, Compound P3 dosed PO 10 mg/kg, Lung): 69 | AUC(0-t) ([1]; mouse, in vivo, po, 10 mg/kg, AUClast, mouse Plasma, Compound P3 dosed PO 10 mg/kg): 3510 ng·h/mL | Cmax ([1]; mouse, in vivo, po, 10 mg/kg, Cmax, mice, Compound P3 dosed PO 10 mg/kg, Liver): 240 ng/mL | Cmax ([1]; mouse, in vivo, po, 10 mg/kg, Cmax, mice, Compound P3 dosed PO 10 mg/kg, Lung): 44200 ng/mL | half-life ([1]; mouse, in vivo, po, 10 mg/kg, t1/2, mice, Compound P3 dosed PO 10 mg/kg, Liver): 4 h | half-life ([1]; mouse, in vivo, po, 10 mg/kg, t1/2, mice, Compound P3 dosed PO 10 mg/kg, Plasma): 2.2 h | half-life ([1]; mouse, in vivo, po, 10 mg/kg, t½, mouse Plasma, Compound P3 dosed PO 10 mg/kg): 2.2 h | half-life [2]: > 0.5 h
